Earlier results, collected in patent publication US11576862B2, “Methods and compositions for preparing a silk microsphere” (Trustees of Tufts College, priority 2012, dated 2023).
Counter-ions that a name gives are not always drawn.

water solubility: 50 mg/mL
Compound: CC12CC3CC(C)(C1)CC(N)(C3)C2 [Memantine hydrochloride, 3,5-dimethyltricyclo[3.3.1.1]decan-1amine]
